Where “and” joins values, the source holds several entries; their conditions need not be identical. Identical values can stand only once.
Key:
[1] = tested on: CHO K1 cells (WTP4); type: cell-based, Chinese hamster
[2] = tested on: CHO K1 cells; type: cell-based, Chinese hamster
[3] = tested on: HeLa cells; type: cell-based, human

Structure (SMILES): CN[C@@H]1C[C@H]2O[C@@](C)([C@@H]1OC)n1c3ccccc3c3c4c(c5c6ccccc6n2c5c31)C(=O)NC4 [Staurosporine, staurosporine]
- % G0/G1 [1]: 42.9% and 41.8%
- % G2/M [1]: 13.6% and 12.2%
- apoptosis induction by TUNEL staining (in words) [2]: complete conversion of cells
- apoptosis induction by PARP cleavage [3]: apoptosis induction

— patent US9890369B2 (priority 2013, dated 2018)
